Reference: patent US10836708B2, “Process for the synthesis of (s) 3-amino-4-(difluoromethylenyl)cyclopent-1-ene-1-carboxylic acid” (NORTHWESTERN UNIVERSITY, priority 2018, dated 2020)

How the values were obtained:
[1] = with prolonged use; cited from earlier work
[2] = system: multiple GABA receptors; conditions: cited from earlier work
[3] = system: γ-aminobutyric acid aminotransferase (GABA-AT); conditions: statement in the background section; cited from earlier work
[4] = molecular target: hERG potassium ion channel (Homo sapiens, UniProt Q12809); conditions: cited from earlier work
[5] = system: aspartate aminotransferase; conditions: off-target aminotransferase enzyme; cited from earlier work
[6] = system: various microsomal cytochrome P450 enzymes; conditions: cited from earlier work
[7] = system: alanine aminotransferase; conditions: off-target aminotransferase enzyme; cited from earlier work
[8] = system: release of dopamine in the corpus striatum; conditions: rats; after exposure to cocaine or nicotine; compared with previous inhibitors of GABA-AT; cited from earlier work

hERG potassium ion channel, sequence (Q12809 whole entry): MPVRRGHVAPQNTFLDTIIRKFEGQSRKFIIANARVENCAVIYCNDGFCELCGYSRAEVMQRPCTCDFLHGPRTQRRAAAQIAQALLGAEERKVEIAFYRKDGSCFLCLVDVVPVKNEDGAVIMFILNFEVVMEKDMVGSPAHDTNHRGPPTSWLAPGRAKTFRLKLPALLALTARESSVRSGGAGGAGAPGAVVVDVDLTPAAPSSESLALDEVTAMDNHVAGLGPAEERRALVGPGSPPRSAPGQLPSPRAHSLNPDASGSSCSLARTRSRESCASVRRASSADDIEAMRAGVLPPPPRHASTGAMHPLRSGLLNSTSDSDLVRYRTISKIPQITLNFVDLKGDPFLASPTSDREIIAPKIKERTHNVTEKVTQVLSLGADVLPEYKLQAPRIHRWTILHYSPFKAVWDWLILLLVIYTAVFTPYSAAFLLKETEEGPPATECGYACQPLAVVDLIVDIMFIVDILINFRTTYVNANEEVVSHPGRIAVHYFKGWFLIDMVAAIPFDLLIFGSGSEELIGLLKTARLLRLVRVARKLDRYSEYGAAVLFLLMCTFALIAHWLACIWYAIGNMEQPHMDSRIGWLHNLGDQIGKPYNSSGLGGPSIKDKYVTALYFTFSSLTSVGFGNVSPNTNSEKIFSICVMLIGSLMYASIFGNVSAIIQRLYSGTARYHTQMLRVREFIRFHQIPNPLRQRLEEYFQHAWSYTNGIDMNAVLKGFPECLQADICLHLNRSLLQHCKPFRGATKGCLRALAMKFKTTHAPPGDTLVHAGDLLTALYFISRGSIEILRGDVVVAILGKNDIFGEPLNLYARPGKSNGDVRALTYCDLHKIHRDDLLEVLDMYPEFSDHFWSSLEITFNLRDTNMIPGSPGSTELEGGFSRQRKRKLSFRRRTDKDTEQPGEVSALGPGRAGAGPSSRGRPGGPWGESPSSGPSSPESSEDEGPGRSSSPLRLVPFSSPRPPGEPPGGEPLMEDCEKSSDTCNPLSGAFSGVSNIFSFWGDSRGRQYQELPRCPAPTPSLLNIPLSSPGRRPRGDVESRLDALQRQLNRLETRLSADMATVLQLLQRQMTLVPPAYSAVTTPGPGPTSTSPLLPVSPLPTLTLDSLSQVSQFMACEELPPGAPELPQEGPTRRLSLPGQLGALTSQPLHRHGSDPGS

## C=CC(N)CCC(=O)O (stereo not shown) [Vigabatrin, 4-Aminohex-5-enoic acid]
[1]
  retinal damage, share of patients: 25-40 % of patients
[2]
  inhibition of multiple GABA receptors: inhibits
[3]
  inhibitor of GABA-AT: inhibitor

## O=C1N[C@@H]2C(=C(F)F)C[C@H]1[C@H]2Br
other
  melting point: 139 to 141 °C

## N[C@H]1C=C(C(=O)O)CC1=C(F)F [(S)-3-amino-4-(difluoromethylenyl)cyclopent-1-ene-1-carboxylic acid]
[4]
  inhibition of the hERG potassium ion channel: does not inhibit
[5]
  inhibition of aspartate aminotransferase: does not inhibit
[6]
  inhibition of various microsomal cytochrome P450 enzymes: does not inhibit
[7]
  inhibition of alanine aminotransferase: does not inhibit
[3]
  inhibitor of GABA-AT: inhibitor
[8]
  suppressing the release of dopamine in the corpus striatum: superior
